Experimental data: patent US20230066011A1, “PYRROLOPYRIMIDINE DERIVATIVE, AND PHARMACEUTICAL COMPOSITION FOR PREVENTING OR TREATING PROTEIN KINASE-RELATED DISEASE COMPRISING SAME AS ACTIVE INGREDIENT” (VORONOI CO., LTD., priority 2019, published 2023)

Legend:
MDA-MB-231 cell line = assay: Inhibition of proliferation of MDA-MB-231 cancer cells (Cell Titer-Glo); format: cell-based; conditions: Homo sapiens, 72 hours
In short: (§1)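 Cells seeded at 2,000/well and exposed 72 h to 11 concentrations of compound (3-fold dilutions, final 10.000000 down to 0.000169 μM) in DMEM or RPMI. Viability read by Cell Titer-Glo luminescence after 10 min at room temperature; GI50 calculated from luminescence.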

TTK = biological target: T1, TTK (Homo sapiens, UniProt P33981); assay: TTK enzyme inhibition, ADP-Glo kinase assay; format: biochemical; set-up: purchased SignalChem T20-10G; conditions: ATP 5 μM
T1 sequence (P33981 1-857): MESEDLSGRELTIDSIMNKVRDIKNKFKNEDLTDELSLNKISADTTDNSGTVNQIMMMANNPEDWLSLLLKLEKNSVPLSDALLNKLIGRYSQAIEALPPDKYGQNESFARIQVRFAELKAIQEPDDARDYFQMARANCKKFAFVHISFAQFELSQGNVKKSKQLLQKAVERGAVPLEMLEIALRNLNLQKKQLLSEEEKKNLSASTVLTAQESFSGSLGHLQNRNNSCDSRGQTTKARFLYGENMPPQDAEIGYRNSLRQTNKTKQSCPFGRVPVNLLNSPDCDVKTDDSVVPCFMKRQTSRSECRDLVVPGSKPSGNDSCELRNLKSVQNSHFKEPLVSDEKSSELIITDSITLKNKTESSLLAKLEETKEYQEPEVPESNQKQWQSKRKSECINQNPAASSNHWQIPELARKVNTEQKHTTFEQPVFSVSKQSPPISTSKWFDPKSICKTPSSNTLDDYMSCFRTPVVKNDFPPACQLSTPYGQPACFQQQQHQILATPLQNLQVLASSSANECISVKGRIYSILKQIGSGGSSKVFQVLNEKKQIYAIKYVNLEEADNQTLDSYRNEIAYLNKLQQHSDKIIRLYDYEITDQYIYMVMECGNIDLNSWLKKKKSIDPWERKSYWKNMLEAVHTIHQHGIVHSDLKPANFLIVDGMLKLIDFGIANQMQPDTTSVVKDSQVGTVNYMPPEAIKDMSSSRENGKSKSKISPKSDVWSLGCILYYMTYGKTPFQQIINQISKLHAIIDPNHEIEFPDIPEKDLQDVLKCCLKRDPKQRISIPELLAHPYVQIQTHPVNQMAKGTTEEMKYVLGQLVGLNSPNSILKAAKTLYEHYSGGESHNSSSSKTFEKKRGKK
Protocol: To evaluate an inhibitory activity of the compound according to the present invention against LRRK2, LRRK2 (G2019S), DYRK1, CLK1, and TTK kinases, experiments were performed as follows.
Each of the Example compounds was reacted with a purified human TTK (SignalChem #T20-10G) enzyme to evaluate an ability to inhibit an enzyme using a method as described below. A composition of 40 mM Tris-HCl (pH 7.4), 20 mM MgCl2, 0.1 mg/mL BSA (a 5× kinase buffer, SignalChem #K03-09), and 50 μM DTT (SignalChem #D86-09B) was used as a reaction buffer, and all reactions of test substances were performed in the reaction buffer. Each of the compounds was diluted […] from a 10 mM DMSO stock using a serial dilution method, and enzyme activities were measured at final compound concentrations of 1, 0.333333, 0.111111, 0.037037, 0.012346, 0.004115, 0.001372, 0.000457, 0.000152, 0.000051, and 0.000017 μM. In the test, purified ATP (5 μM, Promega #V6930) and an MBP enzyme substrate (0.2 μg, SignalChem M42-51N) were reacted with a human TTK (7.5 ng) enzyme at 25° C. for 4 hours, and the enzyme activities were then determined using an in vitro ADP-Glo™ kinase assay (Promega #V6930). An enzyme-activity reaction solution, an ADP-Glo reaction solution, and an enzyme-ability detection solution were reacted at a ratio of 2:2:1 to measure a degree of inhibition of the enzyme activity with luminescence. The degree of inhibition of the enzyme activity according to the treatment concentration of each of the compounds was calculated based on the fluorescence of the enzyme activity of the solvent control which was not treated with the compound. In this case, the concentration of each of the compounds inhibiting 50% of the enzyme activity was determined to be an IC50 (nM) value, and calculated using Prism (Version 8.2 GraphPad) software.

human GST-CLK1 = biological target: T2, human GST-CLK1 (Homo sapiens, UniProt P49759); assay: GST-CLK1 enzyme inhibition, ADP-Glo kinase assay; format: biochemical; conditions: ATP 10 μM, GST-CLK1 129-end
T2 construct: purified human GST-CLK1 (129-end, SignalChem) enzyme; purchased SignalChem
In short: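 Human GST-CLK1 (129-end, 3 ng) reacted with substrate and 10 μM ATP for 1 h at 25° C in 40 mM Tris-HCl pH 7.4, 20 mM MgCl2, 0.5 mg/mL BSA, 50 μM DTT. ADP-Glo luminescence was normalised to solvent control; IC50 (nM) from 3 data sets.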

human GST-DYRK1A = biological target: T3, human GST-DYRK1A (Homo sapiens, UniProt Q13627); assay: GST-DYRK1A enzyme inhibition, ADP-Glo kinase assay; format: biochemical; conditions: ATP 10 μM, GST-DYRK1A full length, read-out: DYRK1 IC50
T3 construct: purified human GST-DYRK1A (full length, Thermo Scientifics) enzyme; purchased Thermo Scientifics
In short: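 Full-length human GST-DYRK1A (10 ng) with 10 μM ATP and specific substrate in 40 mM Tris-HCl pH 7.4, 20 mM MgCl2, 0.5 mg/mL BSA, 50 μM DTT, 1 h at 25 °C. ADP formation read by ADP-Glo luminescence relative to solvent control; IC50 from three data sets.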

SHP-77 = assay: Inhibition of proliferation of SHP-77 cancer cells (Cell Titer-Glo); format: cell-based; conditions: Homo sapiens, SHP77, 72 hours
In short: as §1

MDA-MB-468 cell line = assay: Inhibition of proliferation of MDA-MB-468 cancer cells (Cell Titer-Glo); format: cell-based; conditions: Homo sapiens, MDA-MB-468, 72 hours
In short: as §1

LRRK2 (G2019S) = LRRK2 (G2019S) (Homo sapiens, UniProt Q5S007, G2019S); assay: LRRK2 G2019S enzyme inhibition, ADP-Glo kinase assay; format: biochemical; set-up: purchased SignalChem L10-12GG; conditions: ATP 25 μM
In short: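 Purified human LRRK2 G2019S (16 ng) with 25 μM ATP and 0.2 μg substrate, 2 h at 25° C. in Tris-HCl pH 7.4, MgCl2, BSA, DTT buffer; compounds at 12 final concentrations, 50 μM down to 0.000001024 μM. ADP-Glo luminescence versus solvent control gave IC50.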

LRRK2 = LRRK2 (Homo sapiens, UniProt Q5S007); assay: LRRK2 enzyme inhibition, ADP-Glo kinase assay; format: biochemical; set-up: purchased Invitrogen PR8604B; conditions: ATP 10 μM
In short: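 Purified human LRRK2 (25 ng) with 10 μM ATP and 0.2 μg substrate in 40 mM Tris-HCl pH 7.4, 20 mM MgCl2, 0.5 mg/mL BSA, 50 μM DTT, 2 h at 25° C. ADP-Glo luminescence; 12-point compound series from 50 μM final; IC50 relative to solvent control.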

T2 sequence (P49759 129-484 limits assumed): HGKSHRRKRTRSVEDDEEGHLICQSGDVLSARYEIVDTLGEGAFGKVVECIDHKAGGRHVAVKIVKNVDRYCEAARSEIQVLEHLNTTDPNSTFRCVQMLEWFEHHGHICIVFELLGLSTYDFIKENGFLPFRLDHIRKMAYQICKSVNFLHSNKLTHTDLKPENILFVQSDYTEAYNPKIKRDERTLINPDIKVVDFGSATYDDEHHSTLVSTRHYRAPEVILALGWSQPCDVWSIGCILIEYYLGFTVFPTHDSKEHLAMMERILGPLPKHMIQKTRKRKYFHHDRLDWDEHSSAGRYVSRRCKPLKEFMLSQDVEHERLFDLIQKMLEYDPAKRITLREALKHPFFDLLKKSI
Chain of LRRK2 (Q5S007 970-2527 limits assumed): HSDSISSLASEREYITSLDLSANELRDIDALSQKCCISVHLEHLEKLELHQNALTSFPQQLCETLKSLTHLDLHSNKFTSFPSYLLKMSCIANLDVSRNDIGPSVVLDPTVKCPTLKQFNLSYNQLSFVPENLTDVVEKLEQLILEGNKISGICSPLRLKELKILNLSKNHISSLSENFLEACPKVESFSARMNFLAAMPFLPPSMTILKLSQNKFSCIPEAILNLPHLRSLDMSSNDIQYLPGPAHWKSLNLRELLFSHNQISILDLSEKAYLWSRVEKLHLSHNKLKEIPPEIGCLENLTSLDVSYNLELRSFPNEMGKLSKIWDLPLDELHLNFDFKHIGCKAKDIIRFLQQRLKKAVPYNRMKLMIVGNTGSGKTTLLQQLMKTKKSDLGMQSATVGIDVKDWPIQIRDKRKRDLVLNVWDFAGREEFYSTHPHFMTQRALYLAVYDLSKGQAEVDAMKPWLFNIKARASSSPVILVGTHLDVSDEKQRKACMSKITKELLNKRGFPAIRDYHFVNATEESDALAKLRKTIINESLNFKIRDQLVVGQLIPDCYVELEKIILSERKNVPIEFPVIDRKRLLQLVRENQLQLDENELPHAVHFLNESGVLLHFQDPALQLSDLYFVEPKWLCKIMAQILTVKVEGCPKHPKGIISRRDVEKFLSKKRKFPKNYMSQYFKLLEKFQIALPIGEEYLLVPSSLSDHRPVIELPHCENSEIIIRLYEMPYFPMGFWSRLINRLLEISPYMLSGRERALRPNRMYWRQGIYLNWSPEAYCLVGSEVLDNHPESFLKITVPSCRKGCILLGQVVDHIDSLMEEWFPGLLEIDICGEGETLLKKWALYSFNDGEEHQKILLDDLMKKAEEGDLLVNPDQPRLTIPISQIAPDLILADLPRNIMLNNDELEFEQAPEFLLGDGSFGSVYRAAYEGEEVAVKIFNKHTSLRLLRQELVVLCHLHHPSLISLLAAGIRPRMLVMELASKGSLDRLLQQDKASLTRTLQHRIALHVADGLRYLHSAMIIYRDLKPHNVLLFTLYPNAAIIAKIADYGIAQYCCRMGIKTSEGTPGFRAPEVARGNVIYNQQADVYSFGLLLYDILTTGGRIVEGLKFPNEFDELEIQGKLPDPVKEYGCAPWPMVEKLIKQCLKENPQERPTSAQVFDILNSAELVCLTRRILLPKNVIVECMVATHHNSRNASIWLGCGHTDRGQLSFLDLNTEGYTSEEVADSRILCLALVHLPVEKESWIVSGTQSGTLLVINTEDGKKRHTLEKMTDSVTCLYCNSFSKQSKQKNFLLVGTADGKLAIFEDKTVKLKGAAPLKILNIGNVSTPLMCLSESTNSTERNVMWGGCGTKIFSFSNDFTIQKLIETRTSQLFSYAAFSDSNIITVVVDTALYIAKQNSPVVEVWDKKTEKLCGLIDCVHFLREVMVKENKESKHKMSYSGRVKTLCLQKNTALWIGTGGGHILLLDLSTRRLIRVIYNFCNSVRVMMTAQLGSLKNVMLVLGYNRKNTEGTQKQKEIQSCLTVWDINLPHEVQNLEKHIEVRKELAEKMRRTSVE
Chain of LRRK2 (G2019S) (Q5S007 970-2527 G2019S limits assumed): as the sequence (Q5S007 970-2527 limits assumed) above, with G1050S counted along it

GI50 (MDA-MB-231 cell line) | IC50 (TTK) | IC50 (human GST-CLK1) | IC50 (human GST-DYRK1A) | GI50 (SHP-77) | GI50 (MDA-MB-468 cell line) | IC50 (LRRK2 (G2019S)) | IC50 (LRRK2) | Structure (SMILES)
301 to 1000 nM | < 100 nM | 301 to 1000 nM | 301 to 1000 nM | – | – | – | – | COc1cc(P2(=O)CCN(C3CCOCC3)CC2)ccc1Nc1nc(NC2CCCCC2)c2cc[nH]c2n1 [Example 61, 4-(4-((4-(cyclohexylamino)-7H-pyrrolo[2,3-d]pyrimidin-2-yl)amino)-3-methoxyphenyl)-1-(tetrahydro-2H-pyran-4-yl)-1,4-azaphosphinane 4-oxide]
51 to 100 nM | – | 301 to 1000 nM | 301 to 1000 nM | 101 to 300 nM | 51 to 100 nM | < 100 nM | 101 to 300 nM | COc1cc(S(=O)(=O)N2CCC(N3CCOCC3)CC2)ccc1Nc1nc(NC2CCCC2)c2c(C#N)c[nH]c2n1 [Example 90, 4-(cyclopentylamino)-2-((2-methoxy-4-((4-morpholinopiperidin-1-yl)sulfonyl)phenyl)amino)-7H-pyrrolo[2,3-d]pyrimidine-5-carbonitrile]
51 to 100 nM | – | 301 to 1000 nM | 301 to 1000 nM | < 50 nM | 51 to 100 nM | < 100 nM | < 100 nM | COc1cc(S(=O)(=O)N2CCC(N3CCOCC3)CC2)ccc1Nc1nc(NC2CCCCC2)c2c(C#N)c[nH]c2n1 [Example 91, 4-(cyclohexylamino)-2-((2-methoxy-4-((4-morpholinopiperidin-1-yl)sulfonyl)phenyl)amino)-7H-pyrrolo[2,3-d]pyrimidine-5-carbonitrile]
51 to 100 nM | < 100 nM | < 100 nM | 301 to 1000 nM | – | 51 to 100 nM | – | – | CN1CCC(NC(=O)c2ccc(Nc3nc(NC4CCCCC4)c4c(C#N)c[nH]c4n3)c3c2OCCO3)CC1 [Example 143, 8-((5-cyano-4-(cyclohexylamino)-7H-pyrrolo[2,3-d]pyrimidin-2-yl)amino)-N-(1-methylpiperidin-4-yl)-2,3-dihydrobenzo[b][1,4]dioxin-5-carboxamide]
< 50 nM | < 100 nM | 101 to 300 nM | 301 to 1000 nM | – | 51 to 100 nM | – | – | N#Cc1c[nH]c2nc(Nc3ccc(C(=O)N4CCN(C5COC5)CC4)c4c3OCCO4)nc(NC3CCCCC3)c12 [Example 144, 4-(cyclohexylamino)-2-((8-(4-(oxetan-3-yl)piperazine-1-carbonyl)-2,3-dihydrobenzo[b][1,4]dioxin-5-yl)amino)-7H-pyrrolo[2,3-d]pyrimidine-5-carbonitrile]
51 to 100 nM | < 100 nM | 301 to 1000 nM | 301 to 1000 nM | – | 51 to 100 nM | – | – | N#Cc1c[nH]c2nc(Nc3ccc(C(=O)N4CCN(C5CC5)CC4)c4c3OCCO4)nc(NC3CCCCC3)c12 [Example 145]
101 to 300 nM | < 100 nM | – | – | – | 101 to 300 nM | – | – | CN1CCC(NC(=O)c2ccc(Nc3nc(NC4CCCC4)c4c(C#N)c[nH]c4n3)c3c2OCCO3)CC1 [Example 146, 8-((5-cyano-4-(cyclopentylamino)-7H-pyrrolo[2,3-d]pyrimidin-2-yl)amino)-N-(1-methylpiperidin-4-yl)-2,3-dihydrobenzo[b][1,4]dioxin-5-carboxamide]
101 to 300 nM | < 100 nM | < 100 nM | 301 to 1000 nM | – | 51 to 100 nM | – | – | N#Cc1c[nH]c2nc(Nc3ccc(C(=O)N4CCN(C5COC5)CC4)c4c3OCCO4)nc(NC3CCCC3)c12 [Example 147, 4-(cyclopentylamino)-2-((8-(4-(oxetan-3-yl)piperazine-1-carbonyl)-2,3-dihydrobenzo[b][1,4]dioxin-5-yl)amino)-7H-pyrrolo[2,3-d]pyrimidin-5-carbonitrile]
101 to 300 nM | < 100 nM | 301 to 1000 nM | 301 to 1000 nM | – | 101 to 300 nM | – | – | N#Cc1c[nH]c2nc(Nc3ccc(C(=O)N4CCN(C5CC5)CC4)c4c3OCCO4)nc(NC3CCCC3)c12 [Example 148, 4-(cyclopentylamino)-2-((8-(4-cyclopropylpiperazine-1-carbonyl)-2,3-dihydrobenzo[b][1,4]dioxin-5-yl)amino)-7H-pyrrolo[2,3-d]pyrimidine-5-carbonitrile]
< 50 nM | < 100 nM | 301 to 1000 nM | 301 to 1000 nM | – | 51 to 100 nM | – | – | N#Cc1c[nH]c2nc(Nc3ccc(C(=O)N4CCCC4)c4c3OCCO4)nc(NC3CCCCC3)c12 [Example 149, 4-(cyclohexylamino)-2-((8-(pyrrolidine-1-carbonyl)-2,3-dihydrobenzo[b][1,4]dioxin-5-yl)amino)-7H-pyrrolo[2,3-d]pyrimidine-5-carbonitrile]
51 to 100 nM | < 100 nM | 301 to 1000 nM | 301 to 1000 nM | – | 51 to 100 nM | – | – | N#Cc1c[nH]c2nc(Nc3ccc(C(=O)N4CCOCC4)c4c3OCO4)nc(NC3CCCCC3)c12 [Example 150, 4-(cyclohexylamino)-2-((7-(morpholine-4-carbonyl)benzo[d][1,3]dioxol-4-yl)amino)-7H-pyrrolo[2,3-d]pyrimidine-5-carbonitrile]
– | < 100 nM | 101 to 300 nM | 101 to 300 nM | – | – | – | – | COc1cc(P2(=O)CCN(C3COC3)CC2)ccc1Nc1nc(NC2CCCC2)c2c(C#N)c[nH]c2n1 [Example 313, 4-(cyclo-pentylamino)-2-((2-methoxy-4-(1-(oxetan-3-yl)-4-oxido-1,4-azaphosphinan-4-yl)phenyl)amino)-7H-pyrrolo[2,3-d]pyrimidine-5-carbonitrile]
